Measured values: US9758485B2, “Compounds for controlling arthropods” (priority 2013, dated 2017)
Like-named read-outs stand apart in the source and are kept apart here.

Columns and labels:
[1] = test system: Ctenocephalides felis; experiment: Ctenocephalides felis - oral test; type: in vivo; details: application rate 100 ppm in citrated cattle blood; adult fleas; kill after 2 days
Experimental: Ctenocephalides felis—Oral Test
(§1) Solvent: dimethyl sulphoxide
For the purpose of producing an appropriate active ingredient formulation, 10 mg of active ingredient are mixed with 0.5 ml of dimethyl sulphoxide. Dilution with citrated cattle blood gives the desired concentration.
About 20 unfed adult cat fleas (Ctenocephalides felis) are placed into a chamber which is closed at the top and bottom with gauze. A metal cylinder whose bottom end is closed with parafilm is placed onto the chamber. The cylinder contains the blood/active ingredient preparation, which can be imbibed by the fleas through the parafilm membrane.
After 2 days, the kill in % is determined. 100% means that all of the fleas have been killed; 0% means that none of the fleas have been killed.

[2] = logP determination by HPLC on a reversed-phase column (C18), EEC Directive 79/831 Annex V.A8; type: physicochemical; details: for logP^a): HPLC-MS method a), Table I-T3
[3] = test system: Boophilus microplus; experiment: Boophilus microplus - injection test; type: in vivo; details: application rate 20 μg/animal; injected into engorged adult female ticks; laying of fertile eggs, after 7 days
Experimental: Boophilus microplus—Injection Test
as §1
To produce an appropriate active ingredient formulation, 10 mg of active ingredient are mixed with 0.5 ml of solvent and the concentrate is diluted with solvent to the desired concentration.
1 μl of the active ingredient solution is injected into the abdomen of 5 engorged adult female cattle ticks (Boophilus microplus). The animals are transferred into dishes and kept in a climate-controlled room.
Efficacy is assessed after 7 days by laying of fertile eggs. Eggs which are not visibly fertile are stored in a climate-controlled cabinet until the larvae hatch after about 42 days. An efficacy of 100% means that none of the ticks has laid any fertile eggs; 0% means that all the eggs are fertile.

[4] = HPLC-MS, reversed-phase column (C18)
[5] = HPLC on reversed-phase column (C18)
[6] = reversed-phase HPLC column (C18), HPLC, reversed-phase C18, acetonitrile/water with formic acid, 55° C., read-out: logP

With `Cc1ccc(C(=O)NC2CC2)cc1-c1cnn(-c2c(C)cc(C(F)(C(F)(F)F)C(F)(F)F)cc2C)c1` [I-T3-16] the efficacy [1] was 80% and the “logP^a)” value [2] was 4.4.

In the case of `Cc1cc(C(F)(C(F)(F)F)C(F)(F)F)cc(C)c1-n1cc(-c2cc(C(=O)NC3CC3)ccc2F)cn1` [I-T3-13], the efficacy [3] is reported as 100%, the efficacy [1] is reported as 80% and the “logP^a)” value [2] is reported as 4.5.

With `O=C(NC1CC1)c1cc(-c2cnn(-c3c(Cl)cc(C(F)(C(F)(F)F)C(F)(F)F)cc3Cl)c2)cnc1N1CCCC1` [I-T3-135] the efficacy [1] was 100% and the “log P” value [2, 4] was 4.3.

For `CN(C(=O)c1cc(-c2cnn(-c3c(Cl)cc(C(O)(C(F)(F)F)C(F)(F)F)cc3Cl)c2)cnc1Cl)C1CC1` [I-T3-220], the “log P” value [2, 5] was 3.4.

In the case of `Cc1cc(C(F)(C(F)(F)F)C(F)(F)F)cc(C(F)(F)F)c1N` [4-heptafluoroisopropyl-2-methyl-6-trifluoromethylaniline], the chromatographic logP [2, 6] is reported as 4.67.

For `CN(C(=O)c1cc(-c2cnn(-c3c(Cl)cc(C(F)(C(F)(F)F)C(F)(F)F)cc3OC(F)F)c2)ccc1Cl)C1CC1` [I-T3-216], the “log P” value [2, 5] was 4.7.

In the case of `CCSc1cc(C(F)(C(F)(F)F)C(F)(F)F)cc(SCC)c1-n1cc(-c2ccc(Cl)c(C(=O)NC3(C#N)CC3)c2)cn1` [I-T3-191], the “log P” value [2, 5] is reported as 4.7.

For `O=C(NC1CC1)c1cc(-c2cnn(-c3c(I)cc(C(F)(C(F)(F)F)C(F)(F)F)cc3OC(F)(F)F)c2)ccc1Cl` [I-T3-224], the “log P” value [2, 5] was 4.7.

In the case of `CCS(=O)(=O)c1cc(C(F)(F)F)cc(Cl)c1-n1cc(-c2ccc(Cl)c(C(=O)NC3CC3)c2)cn1` [I-T3-178], the “log P” value [2, 4] is reported as 3.2.

For `Cc1cc(C(F)(C(F)(F)F)C(F)(F)F)cc(C)c1-n1cc(-c2cnc(C3CC3)c(C(=O)N(C)C3CC3)c2)cn1` [I-T3-142], the efficacy [3] was 100% and the “log P” value [2, 4] was 4.6.

With `N#CC1(NC(=O)c2cc(-c3cnn(-c4c(Cl)cc(C(F)(F)F)cc4[N+](=O)[O-])c3)ccc2Cl)CC1` [I-T3-169] the “log P” value [2, 4] was 3.2.

With `Cc1cc(C(F)(C(F)(F)F)C(F)(F)F)cc(C)c1-n1ccc(-c2ccc(Cl)c(C(=O)NC3(C#N)CC3)c2)c1` [I-T46-1] the logP ([2]; HPLC, reversed-phase C18, acetonitrile/water with formic acid, 55° C.) was 4.90.

`CC[S+]([O-])c1cc(C(F)(C(F)(F)F)C(F)(F)F)cnc1-n1cc(-c2ccc(Cl)c(C(=O)NC3CC3)c2)cn1` (stereo not shown) [I-T3-157, 2-Chloro-N-cyclopropyl-5-{1-[3-(ethylsulphinyl)-5-(1,1,1,2,3,3,3-heptafluoropropan-2-yl)pyridin-2-yl]-1H-pyrazol-4-yl}benzamide] gave a chromatographic logP [2, 6] of 3.79, a chromatographic logP ([2]; reversed-phase HPLC column (C18), HPLC-MS method a), reversed-phase column (C18); read-out: logP^a)) of 3.8 and a chromatographic logP ([2]; reversed-phase HPLC column (C18), HPLC-MS, reversed-phase column (C18), read-out: log P) of 3.8.

For `N#CC1(NC(=O)c2cc(-c3cnn(-c4c(Cl)cc(C(O)(C(F)(F)F)C(F)(F)F)cc4Cl)c3)cnc2Cl)CC1` [I-T3-222], the “log P” value [2, 5] was 3.0.

In the case of `N#CC1(NC(=O)c2cc(-c3cnn(-c4ncc(C(F)(C(F)(F)F)C(F)(F)F)cc4SCC(F)(F)F)c3)ccc2Cl)CC1` [I-T3-171], the “log P” value [2, 4] is reported as 4.5.

In the case of `N#CC1(NC(=O)c2cc(-c3cnn(-c4c(I)cc(C(F)(C(F)(F)F)C(F)(F)F)cc4C(F)(F)F)c3)ccc2Cl)CC1` [I-T3-228], the “log P” value [2, 5] is reported as 4.4.

For `CCS(=O)(=O)c1cc(C(F)(F)F)cc(Cl)c1-n1cc(-c2ccc(Cl)c(C(=O)NC3(C#N)CC3)c2)cn1` [I-T3-183], the “log P” value [2, 5] was 3.1.

For `N#CC1(NC(=O)c2cc(-c3cnn(-c4c(F)cc(C(F)(F)F)cc4Cl)c3)ccc2Cl)CC1` [I-T3-187], the “log P” value [2, 5] was 3.3.

`O=C(NC1CC1)c1cc(-c2cnn(-c3ncc(C(F)(C(F)(F)F)C(F)(F)F)cc3Cl)c2)ccc1Cl` [2-chloro-5-{1-[3-chloro-5-(1,1,1,2,3,3,3-heptafluoropropan-2-yl)pyridin-2-yl]-1H-pyrazol-4-yl}-N-cyclopropylbenzamide] showed a chromatographic logP [2, 6] of 4.08.

With `CN(C(=O)c1cc(-c2cnn(-c3c(Cl)cc(C(O)(C(F)(F)F)C(F)(F)F)cc3Cl)c2)cnc1Cl)C1(C#N)CC1` [I-T3-223] the “log P” value [2, 5] was 3.3.

For `CCSc1cc(C(F)(F)F)cc(Cl)c1-n1cc(-c2ccc(Cl)c(C(=O)NC3CC3)c2)cn1` [I-T3-172], the “log P” value [2, 4] was 3.9.

With `N#Cc1cc(C(F)(F)F)cc(Cl)c1-n1cc(-c2ccc(Cl)c(C(=O)NC3CC3)c2)cn1` [I-T3-174] the “log P” value [2, 4] was 3.1.

With `N#CC1(NC(=O)c2cc(-c3cnn(-c4c(I)cc(C(F)(C(F)(F)F)C(F)(F)F)cc4OC(F)(F)F)c3)ccc2Cl)CC1` [I-T3-226] the “log P” value [2, 5] was 4.6.

With `Cc1cc(C(F)(C(F)(F)F)C(F)(F)F)cc(C)c1-n1cc(-c2cc(C(=O)NC3CC3)c(F)cc2Cl)cn1` [I-T3-11] the efficacy [3] was 100%, the efficacy [1] was 95% and the “logP^a)” value [2] was 4.9.

`FC(F)(F)C(F)(c1cnc(-n2cc(Br)cn2)c(Cl)c1)C(F)(F)F` [2-(4-bromo-1H-pyrazol-1-yl)-3-chloro-5-(1,1,1,2,3,3,3-heptafluoropropan-2-yl)pyridine] showed a chromatographic logP [2, 6] of 4.74.

In the case of `CC[S+]([O-])c1cc(C(F)(C(F)(F)F)C(F)(F)F)cnc1-n1cc(-c2ccc(Cl)c(C(=O)NC3(C#N)CC3)c2)cn1` (stereo not shown) [I-T3-153], the “log P” value [2, 4] is reported as 3.7.

With `N#CC1(NC(=O)c2cc(-c3cnn(-c4c(Cl)cc(C(F)(C(F)(F)F)C(F)(F)F)cc4I)c3)ccc2Cl)CC1` [I-T3-212] the “log P” value [2, 5] was 4.3.

For `O=C(NC1CC1)c1cc(-c2cnn(-c3c(Cl)cc(C(F)(C(F)(F)F)C(F)(F)F)cc3C(F)F)c2)ccc1Cl` [I-T3-193], the “log P” value [2, 5] was 4.4.

In the case of `NC(=O)C1(NC(=O)c2cc(-c3cnn(-c4c(F)c(F)c(C(F)(F)F)c(F)c4F)c3)ccc2Cl)CC1` [I-T3-194], the “log P” value [2, 5] is reported as 2.8.

With `Cc1cc(C(F)(C(F)(F)F)C(F)(F)F)cc(C)c1-n1cc(-c2cc(C(=O)NC3(C#N)CC3)ccc2F)cn1` [I-T3-19] the efficacy [3] was 100%, the efficacy [1] was 95% and the “logP^a)” value [2] was 4.3.

For `CCS(=O)(=O)c1cc(C(F)(C(F)(F)F)C(F)(F)F)cc(Cl)c1-n1cc(-c2ccc(Cl)c(C(=O)NC3(C#N)CC3)c2)cn1` [I-T3-201], the “log P” value [2, 5] was 4.0.

With `N#CC1(NC(=O)c2cc(-c3cnn(-c4c(F)c(F)c(C(F)(F)F)c(F)c4F)c3)ccc2Cl)CC1` [I-T3-188] the “log P” value [2, 5] was 3.4.

In the case of `CCSc1cc(C(F)(F)F)cc(C#N)c1-n1cc(-c2ccc(Cl)c(C(=O)NC3(C#N)CC3)c2)cn1` [I-T3-177], the “log P” value [2, 4] is reported as 3.4.

In the case of `CC[S+]([O-])c1cc(C(F)(F)F)cc(Cl)c1-n1cc(-c2ccc(Cl)c(C(=O)NC3CC3)c2)cn1` (stereo not shown) [I-T3-179], the “log P” value [2, 4] is reported as 3.0.

Compound `NNc1c(Cl)cc(C(O)(C(F)(F)F)C(F)(F)F)cc1Cl` [2-(3,5-dichloro-4-hydrazinophenyl)-1,1,1,3,3,3-hexafluoropropan-2-ol] has a chromatographic logP [2, 6] of 1.92.

With `O=C(NC1CC1)c1cc(-c2cnn(-c3c(I)cc(C(F)(C(F)(F)F)C(F)(F)F)cc3C(F)(F)F)c2)ccc1Cl` [I-T3-227] the “log P” value [2, 5] was 4.5.

For `Cc1cc(C(F)(C(F)(F)F)C(F)(F)F)cc(C)c1-c1ccn(-c2ccc(Cl)c(C(=O)NC3(C#N)CC3)c2)n1` [I-T2-2], the efficacy [3] was 100%.

For `N#CC1(NC(=O)c2cccc(-c3cnn(-c4c(Cl)cc(C(F)(C(F)(F)F)C(F)(F)F)cc4Cl)c3)c2F)CC1` [I-T3-22], the “logP^a)” value [2] was 4.1.
